Test results reported in the NIST ThermoML archive (doi:10.1021/je0501843).
“And” between values parts separate entries of the source, which are not always exact repeats. Equal values may be shown once.

Assay: molar heat capacity at constant volume
Details: Fluid (supercritical or subcritical phases), Vacuum adiabatic calorimetry

FC(F)C(F)(F)F [pentafluoroethane]
Details | molar heat capacity at constant volume
365 K, Mass density=773.3 kg/m3 | 119.04 J/K/mol
365 K, Mass density=881.8 kg/m3 | 110.32 J/K/mol
365 K, Mass density=973.8 kg/m3 | 106.41 J/K/mol and 108.3 J/K/mol
365 K, Mass density=1075 kg/m3 | 105.75 J/K/mol
366 K, Mass density=403.6 kg/m3 | 108.16 J/K/mol
366 K, Mass density=503 kg/m3 | 114.45 J/K/mol
366 K, Mass density=585.5 kg/m3 | 119.7 J/K/mol and 112.44 J/K/mol
366 K, Mass density=688.1 kg/m3 | 116.48 J/K/mol
366 K, Mass density=881.7 kg/m3 | 110.43 J/K/mol
366 K, Mass density=973.7 kg/m3 | 107.62 J/K/mol and 109.23 J/K/mol
366 K, Mass density=1074.9 kg/m3 | 106.22 J/K/mol
367 K, Mass density=403.6 kg/m3 | 110.86 J/K/mol
367 K, Mass density=502.9 kg/m3 | 113.31 J/K/mol
367 K, Mass density=585.4 kg/m3 | 117.62 J/K/mol and 110.28 J/K/mol
367 K, Mass density=688.1 kg/m3 | 115.05 J/K/mol
367 K, Mass density=881.7 kg/m3 | 109.7 J/K/mol
367 K, Mass density=973.6 kg/m3 | 107.58 J/K/mol and 108.96 J/K/mol
367 K, Mass density=1074.8 kg/m3 | 106.41 J/K/mol
368 K, Mass density=403.5 kg/m3 | 111.09 J/K/mol
368 K, Mass density=502.9 kg/m3 | 112.14 J/K/mol
368 K, Mass density=585.4 kg/m3 | 115.53 J/K/mol and 108.9 J/K/mol
368 K, Mass density=688 kg/m3 | 113.01 J/K/mol
368 K, Mass density=773.1 kg/m3 | 111.16 J/K/mol
368 K, Mass density=881.6 kg/m3 | 109.62 J/K/mol
368 K, Mass density=973.6 kg/m3 | 106.75 J/K/mol and 108.55 J/K/mol
368 K, Mass density=1074.7 kg/m3 | 106.17 J/K/mol
369 K, Mass density=403.5 kg/m3 | 111.67 J/K/mol
369 K, Mass density=502.9 kg/m3 | 113.46 J/K/mol
369 K, Mass density=585.4 kg/m3 | 118.03 J/K/mol and 110.31 J/K/mol
369 K, Mass density=688 kg/m3 | 114.37 J/K/mol
369 K, Mass density=773.1 kg/m3 | 112.65 J/K/mol
369 K, Mass density=881.6 kg/m3 | 110.94 J/K/mol
369 K, Mass density=973.5 kg/m3 | 108.28 J/K/mol and 109.62 J/K/mol
369 K, Mass density=1074.6 kg/m3 | 106.18 J/K/mol
370 K, Mass density=403.5 kg/m3 | 111.22 J/K/mol
370 K, Mass density=502.9 kg/m3 | 114.85 J/K/mol
370 K, Mass density=585.4 kg/m3 | 118.04 J/K/mol and 108.82 J/K/mol
370 K, Mass density=687.9 kg/m3 | 116.1 J/K/mol
370 K, Mass density=773 kg/m3 | 113 J/K/mol
370 K, Mass density=881.5 kg/m3 | 111.13 J/K/mol
370 K, Mass density=973.4 kg/m3 | 107.54 J/K/mol and 109.82 J/K/mol
370 K, Mass density=1074.5 kg/m3 | 106.55 J/K/mol
371 K, Mass density=403.5 kg/m3 | 112.09 J/K/mol
371 K, Mass density=502.9 kg/m3 | 116.62 J/K/mol
371 K, Mass density=585.3 kg/m3 | 116.07 J/K/mol and 110.26 J/K/mol
371 K, Mass density=687.9 kg/m3 | 113.67 J/K/mol
371 K, Mass density=773 kg/m3 | 111.62 J/K/mol
371 K, Mass density=881.4 kg/m3 | 110.7 J/K/mol
371 K, Mass density=973.3 kg/m3 | 107.44 J/K/mol and 109.17 J/K/mol
371 K, Mass density=1074.4 kg/m3 | 107.07 J/K/mol
372 K, Mass density=403.5 kg/m3 | 114.04 J/K/mol
372 K, Mass density=502.8 kg/m3 | 115.24 J/K/mol
372 K, Mass density=585.3 kg/m3 | 115.84 J/K/mol and 110.71 J/K/mol
372 K, Mass density=687.9 kg/m3 | 112.84 J/K/mol
372 K, Mass density=772.9 kg/m3 | 111.54 J/K/mol
372 K, Mass density=881.4 kg/m3 | 110.3 J/K/mol
372 K, Mass density=973.3 kg/m3 | 107.17 J/K/mol and 108.04 J/K/mol
372 K, Mass density=1074.3 kg/m3 | 106.22 J/K/mol
373 K, Mass density=403.5 kg/m3 | 113.17 J/K/mol
373 K, Mass density=502.8 kg/m3 | 117.01 J/K/mol
373 K, Mass density=585.3 kg/m3 | 117.2 J/K/mol and 110.91 J/K/mol
373 K, Mass density=687.8 kg/m3 | 113.56 J/K/mol
373 K, Mass density=772.9 kg/m3 | 111.8 J/K/mol
373 K, Mass density=881.3 kg/m3 | 111.19 J/K/mol
373 K, Mass density=973.2 kg/m3 | 107.61 J/K/mol and 108.78 J/K/mol
374 K, Mass density=403.4 kg/m3 | 114.45 J/K/mol
374 K, Mass density=502.8 kg/m3 | 119.13 J/K/mol
374 K, Mass density=585.3 kg/m3 | 117.5 J/K/mol and 112.68 J/K/mol
374 K, Mass density=687.8 kg/m3 | 114.16 J/K/mol
374 K, Mass density=772.9 kg/m3 | 112.71 J/K/mol
374 K, Mass density=881.2 kg/m3 | 112 J/K/mol
374 K, Mass density=973.1 kg/m3 | 108.98 J/K/mol and 110.07 J/K/mol
375 K, Mass density=403.4 kg/m3 | 112.95 J/K/mol
375 K, Mass density=502.8 kg/m3 | 117.92 J/K/mol
375 K, Mass density=585.2 kg/m3 | 116.64 J/K/mol and 110.73 J/K/mol
375 K, Mass density=687.8 kg/m3 | 113.4 J/K/mol
375 K, Mass density=772.8 kg/m3 | 112.33 J/K/mol
375 K, Mass density=881.2 kg/m3 | 111 J/K/mol
375 K, Mass density=973 kg/m3 | 108.25 J/K/mol and 109.81 J/K/mol
376 K, Mass density=403.4 kg/m3 | 116.08 J/K/mol
376 K, Mass density=502.8 kg/m3 | 116.37 J/K/mol
376 K, Mass density=585.2 kg/m3 | 116.55 J/K/mol and 110.52 J/K/mol
376 K, Mass density=687.7 kg/m3 | 113.56 J/K/mol
376 K, Mass density=772.8 kg/m3 | 112.56 J/K/mol
376 K, Mass density=881.1 kg/m3 | 110.12 J/K/mol
376 K, Mass density=973 kg/m3 | 107.55 J/K/mol and 109 J/K/mol
377 K, Mass density=403.4 kg/m3 | 115.48 J/K/mol
377 K, Mass density=502.7 kg/m3 | 117.28 J/K/mol
377 K, Mass density=585.2 kg/m3 | 116.34 J/K/mol and 111.62 J/K/mol
377 K, Mass density=687.7 kg/m3 | 114.45 J/K/mol
377 K, Mass density=772.7 kg/m3 | 113.06 J/K/mol
377 K, Mass density=881.1 kg/m3 | 110.86 J/K/mol
377 K, Mass density=972.9 kg/m3 | 108.42 J/K/mol and 108.94 J/K/mol
378 K, Mass density=403.4 kg/m3 | 113.28 J/K/mol
378 K, Mass density=502.7 kg/m3 | 118.29 J/K/mol
378 K, Mass density=585.1 kg/m3 | 116.82 J/K/mol and 112.87 J/K/mol
378 K, Mass density=687.6 kg/m3 | 114.84 J/K/mol
378 K, Mass density=772.7 kg/m3 | 112.51 J/K/mol
378 K, Mass density=881 kg/m3 | 111.43 J/K/mol
378 K, Mass density=972.8 kg/m3 | 108.14 J/K/mol and 110.22 J/K/mol
379 K, Mass density=403.3 kg/m3 | 117.97 J/K/mol
379 K, Mass density=502.7 kg/m3 | 115.21 J/K/mol
379 K, Mass density=585.1 kg/m3 | 116.17 J/K/mol and 112.3 J/K/mol
379 K, Mass density=687.6 kg/m3 | 115.82 J/K/mol
379 K, Mass density=772.6 kg/m3 | 113.55 J/K/mol
379 K, Mass density=880.9 kg/m3 | 111.09 J/K/mol
379 K, Mass density=972.7 kg/m3 | 107.65 J/K/mol and 109.27 J/K/mol
380 K, Mass density=403.3 kg/m3 | 116.02 J/K/mol
380 K, Mass density=502.7 kg/m3 | 112.64 J/K/mol
380 K, Mass density=585.1 kg/m3 | 111.27 J/K/mol
380 K, Mass density=687.6 kg/m3 | 113.06 J/K/mol
380 K, Mass density=772.6 kg/m3 | 113.31 J/K/mol
380 K, Mass density=880.9 kg/m3 | 111.18 J/K/mol
380 K, Mass density=972.6 kg/m3 | 107.71 J/K/mol and 108.81 J/K/mol
381 K, Mass density=403.3 kg/m3 | 114.7 J/K/mol
381 K, Mass density=502.6 kg/m3 | 115.06 J/K/mol
381 K, Mass density=585 kg/m3 | 114.39 J/K/mol
381 K, Mass density=687.5 kg/m3 | 113.14 J/K/mol
381 K, Mass density=772.5 kg/m3 | 113.07 J/K/mol
381 K, Mass density=880.8 kg/m3 | 112.11 J/K/mol
381 K, Mass density=972.6 kg/m3 | 113.29 J/K/mol and 109.7 J/K/mol
382 K, Mass density=403.3 kg/m3 | 116.14 J/K/mol
382 K, Mass density=502.6 kg/m3 | 117.31 J/K/mol
